Reference: paper PMC9562916, “Investigation of the Phenolic Component Bioavailability Using the In Vitro Digestion/Caco-2 Cell Model, as well as the Antioxidant Activity in Chinese Red Wine” (Foods, 2022)
Marks after values point to notes of the source that are not given here.

Tested on: not listed separately
Assay: PC content of red wine before and after in vitro simulated gastrointestinal digestion (HPLC)
Format: in vitro ADME
Conditions: Cabernet red wine, after simulated gastrointestinal digestion
Protocol: The digestion procedure was carried out by adapting the method of Brodkorb et al. and Gómez et al.. […] One milliliter (50 units/mL) of porcine amylase was prepared in a 15 mM Na₃PO₄ buffer solution (pH adjusted to 6.8) containing 1.5 mM CaCl2, and it was added to the red wine solution. After 5 min, 4.5 mL of 0.12 M HCl was added to the mixture to adjust the pH to 2.4. One milliliter of porcine pepsin (0.02 mg/L) was dissolved in a 20 mM HCl solution. The mixture was then maintained at 37 °C for 120 min. The digestion mixture was then centrifuged at 8000× g for 15 min to obtain samples from the gastric digestion phase. […] The mixture was incubated at pH 6.5 at 37 °C for 3 h before being centrifuged. The extracts of the intestinal phase were the supernatants. The same operation was done three times, and each sample was stored in a refrigerator (−20 °C) immediately for further analysis.
The Pati method was adopted, with slight modifications, to measure the content of the PCs. The Agilent 1100 series HPLC instrument was used; it was equipped with a degasser, quaternary pump solvent delivery, a DAD system, and a single quadrupole mass detector coupled with an electrospray ionization LC–MS interface. Briefly, th samples were injected into a Zorbax SB C18 reversed-phase column (5 µm,150 × 2.1 mm, Agilent Technologies, Santa Clara, CA, USA) using an autosampler after filtering through 0.45 µm cellulose acetate syringe filters. The column temperature was kept at 30 °C, the injection volume was 10 µL, and the flow rate was 0.3 mL/min. The eluents were water and formic acid in a 99:1 (v/v) (A) ratio and 100% acetonitrile (B). […] The MS configuration was as follows: ESI, negative ion mode, nebulizer pressure of 30 psi, a dry gas flow rate of 10 mL/min, dry gas temperature of 350 °C, and a scan rate of 100~1200 m/z. PCs were determined according to their retention times, UV/VIS spectra, and high-resolution MS spectra, in addition to a comparison with the standards. […] Putative annotations were made using spectral features and literature information on the chromatographic properties and mass spectra records from the metabolome database. A standard curve was drawn using methanol solutions with different concentrations as the standards. The limits of detection and quantitation were calculated according to the signal-to-noise ratio (limit of detection: signal-to-noise ratio ≥ 3; limit of quantitation: signal-to-noise ratio ≥ 10). […] PCs All of the samples were determined in triplicate.

Q: Which “PC Contents, Cabernet, After Digestion” value does the source give for COc1cc(-c2oc3cc(O)cc(O)c3c(=O)c2O[C@@H]2O[C@H](CO)[C@@H](O)[C@H](O)[C@H]2O)ccc1O [Isorhamnetin-3-glc] here?
A: Its value is 10.82 ± 0.32 ^b mg/L.

Q: For COc1cc(-c2[o+]c3cc(O)cc(O)c3cc2O[C@@H]2O[C@H](COC(C)=O)[C@@H](O)[C@H](O)[C@H]2O)cc(OC)c1O [Malvidin-3-acglc], which “PC Contents, Cabernet, After Digestion” value is on record?
A: Its value is 39.8 ± 1.51 ^b mg/L.

Same assay, conditions: Helanshan red wine, after simulated gastrointestinal digestion

Q: Which “PC Contents, Helanshan, After Digestion” value does the source give for COc1cc(-c2oc3cc(O)cc(O)c3c(=O)c2O[C@@H]2O[C@H](CO)[C@@H](O)[C@H](O)[C@H]2O)ccc1O [Isorhamnetin-3-glc] here?
A: The value was 9.87 ± 0.47 ^b mg/L.

Q: With COc1cc(-c2[o+]c3cc(O)cc(O)c3cc2O[C@@H]2O[C@H](COC(C)=O)[C@@H](O)[C@H](O)[C@H]2O)cc(OC)c1O [Malvidin-3-acglc] as the compound, how does the “PC Contents, Helanshan, After Digestion” value read?
A: The value was 30.5 ± 0.92 ^b mg/L.

Same assay, conditions: Tianzhu red wine, after simulated gastrointestinal digestion

Q: For COc1cc(-c2oc3cc(O)cc(O)c3c(=O)c2O[C@@H]2O[C@H](CO)[C@@H](O)[C@H](O)[C@H]2O)ccc1O [Isorhamnetin-3-glc], which “PC Contents, Tianzhu, After Digestion” value is on record?
A: The value was 9.88 ± 0.35 ^b mg/L.

Q: With COc1cc(-c2[o+]c3cc(O)cc(O)c3cc2O[C@@H]2O[C@H](COC(C)=O)[C@@H](O)[C@H](O)[C@H]2O)cc(OC)c1O [Malvidin-3-acglc] as the compound, how does the “PC Contents, Tianzhu, After Digestion” value read?
A: The value was 39.3 ± 1.30 ^b mg/L.

Tested on: Caco-2 cell monolayer
Assay: Caco-2 transepithelial transport assay of digested red wine
Format: in vitro ADME, human
Conditions: Cabernet red wine, digested sample, basolateral side of Caco-2 monolayer
Protocol: Caco-2 cells were inoculated following the method of Hubatsch et al. […] Briefly, a 5% v/v of CO2 incubator at 37 °C was used to house the cells. […] Caco-2 cells were sub-cultured when they reached 80-90% of the adherent growth by treating them with a 0.05% v/v of trypsin-EDTA solution. The culture between passages 35 and 40 was used for the following experiment. Transport experiments were performed according to the method of Wu et al. with slight modifications. First, 1.0 × 10^5 Caco-2 cells were inoculated onto 12 mm transparent cell culture plates (Transwell). Media were carefully injected into the apical (0.5 mL) and basolateral (1.5 mL) sides of the Transwell plates. The cell culture medium had to be replaced every other day until the cells formed a monolayer. The integrity and transport ability of the Caco-2 cell monolayer were evaluated by measuring the trans-epithelial electrical resistance (TEER) with a MilliCell voltammeter (Millicell ERS-2, Merck Millipore, Billerica, MA, USA). […] When the cell activity exceeded 0.9, a transport experiment was conducted. The apical side was injected with a digested red wine sample (0.5 mL) and was thoroughly mixed with […] Balanced Salt Solution (HBSS) buffer solution. […] The cells were then cultured in a 37 °C, 5% CO2 incubator. Then, 0.25 mL samples were separately taken from the basolateral side of the monolayer. An equal volume of HBSS buffer was then added every half hour from the beginning of the culture until the end of the culture at 6 h. The collected samples were subsequently filtered and placed in the sample bottle for further HPLC analysis. This experiment was repeated several times to collect enough samples for the next antioxidant test. […] The Agilent 1100 series HPLC instrument was used; it was equipped with a degasser, quaternary pump solvent delivery, a DAD system, and a single quadrupole mass detector coupled with an electrospray ionization LC-MS interface. […] The column temperature was kept at 30 °C, the injection volume was 10 μL, and the flow rate was 0.3 mL/min. The eluents were water and formic acid in a 99:1 (v/v) (A) ratio and 100% acetonitrile (B). The gradient elution procedure was as follows: (1) 3% B solvent at 0 min, (2) 3 to 16% B solvent at 10 min, (3) 16 to 20% B solvent at 30 min, and (4) 20% B solvent maintained until the procedure was completed. The MS configuration was as follows: ESI, negative ion mode, nebulizer pressure of 30 psi, a dry gas flow rate of 10 mL/min, dry gas temperature of 350 °C, and a scan rate of 100~1200 m/z. PCs were determined according to their retention times, UV/VIS spectra, and high-resolution MS spectra, in addition to a comparison with the standards. […] If a standard was unavailable, a structurally related compound was used. Putative annotations were made using spectral features and literature information on the chromatographic properties and mass spectra records from the metabolome database. A standard curve was drawn using methanol solutions with different concentrations as the standards. […] PCs All of the samples were determined in triplicate.

Q: For COc1cc(-c2oc3cc(O)cc(O)c3c(=O)c2O[C@@H]2O[C@H](CO)[C@@H](O)[C@H](O)[C@H]2O)ccc1O [Isorhamnetin-3-glc], which “PC Contents, Cabernet, Transmembrane” value is on record?
A: Its value is 0.74 ± 0.03 ^a mg/L.

Q: Which “PC Contents, Cabernet, Transmembrane” value does the source give for COc1cc(-c2[o+]c3cc(O)cc(O)c3cc2O[C@@H]2O[C@H](COC(C)=O)[C@@H](O)[C@H](O)[C@H]2O)cc(OC)c1O [Malvidin-3-acglc] here?
A: Its value is 8.02 ± 0.38 ^a mg/L.

Same assay, conditions: Helanshan red wine, digested sample, basolateral side of Caco-2 monolayer

Q: For COc1cc(-c2oc3cc(O)cc(O)c3c(=O)c2O[C@@H]2O[C@H](CO)[C@@H](O)[C@H](O)[C@H]2O)ccc1O [Isorhamnetin-3-glc], which “PC Contents, Helanshan, Transmembrane” value is on record?
A: Its value is 0.69 ± 0.03 ^a mg/L.

Q: Which “PC Contents, Helanshan, Transmembrane” value does the source give for COc1cc(-c2[o+]c3cc(O)cc(O)c3cc2O[C@@H]2O[C@H](COC(C)=O)[C@@H](O)[C@H](O)[C@H]2O)cc(OC)c1O [Malvidin-3-acglc] here?
A: Its value is 6.06 ± 0.25 ^a mg/L.

Same assay, conditions: Tianzhu red wine, digested sample, basolateral side of Caco-2 monolayer

Q: For COc1cc(-c2oc3cc(O)cc(O)c3c(=O)c2O[C@@H]2O[C@H](CO)[C@@H](O)[C@H](O)[C@H]2O)ccc1O [Isorhamnetin-3-glc], which “PC Contents, Tianzhu, Transmembrane” value is on record?
A: The value was 1.97 ± 0.07 ^a mg/L.

Q: With COc1cc(-c2[o+]c3cc(O)cc(O)c3cc2O[C@@H]2O[C@H](COC(C)=O)[C@@H](O)[C@H](O)[C@H]2O)cc(OC)c1O [Malvidin-3-acglc] as the compound, how does the “PC Contents, Tianzhu, Transmembrane” value read?
A: The value was 7.83 ± 0.23 ^a mg/L.

Same assay, conditions: apical to basolateral, digested Cabernet red wine

Q: With COc1cc(-c2oc3cc(O)cc(O)c3c(=O)c2O[C@@H]2O[C@H](CO)[C@@H](O)[C@H](O)[C@H]2O)ccc1O [Isorhamnetin-3-glc] as the compound, how does the “Apparent Permeability Coefficients, Cabernet” value read?
A: The value was 4.29 ± 0.33 ^a ×10^−6 cm/s.

Q: With COc1cc(-c2[o+]c3cc(O)cc(O)c3cc2O[C@@H]2O[C@H](COC(C)=O)[C@@H](O)[C@H](O)[C@H]2O)cc(OC)c1O [Malvidin-3-acglc] as the compound, how does the “Apparent Permeability Coefficients, Cabernet” value read?
A: Its value is 12.59 ± 2.16 ^a ×10^−6 cm/s.

Same assay, conditions: apical to basolateral, digested Helanshan red wine

Q: With COc1cc(-c2oc3cc(O)cc(O)c3c(=O)c2O[C@@H]2O[C@H](CO)[C@@H](O)[C@H](O)[C@H]2O)ccc1O [Isorhamnetin-3-glc] as the compound, how does the “Apparent Permeability Coefficients, Helanshan” value read?
A: Its value is 4.39 ± 0.31 ^a ×10^−6 cm/s.

Q: Which “Apparent Permeability Coefficients, Helanshan” value does the source give for COc1cc(-c2[o+]c3cc(O)cc(O)c3cc2O[C@@H]2O[C@H](COC(C)=O)[C@@H](O)[C@H](O)[C@H]2O)cc(OC)c1O [Malvidin-3-acglc] here?
A: Its value is 12.42 ± 2.23 ^a ×10^−6 cm/s.

Same assay, conditions: apical to basolateral, digested Tianzhu red wine

Q: With COc1cc(-c2oc3cc(O)cc(O)c3c(=O)c2O[C@@H]2O[C@H](CO)[C@@H](O)[C@H](O)[C@H]2O)ccc1O [Isorhamnetin-3-glc] as the compound, how does the “Apparent Permeability Coefficients, Tianzhu” value read?
A: Its value is 4.35 ± 0.34 ^a ×10^−6 cm/s.

Q: For COc1cc(-c2[o+]c3cc(O)cc(O)c3cc2O[C@@H]2O[C@H](COC(C)=O)[C@@H](O)[C@H](O)[C@H]2O)cc(OC)c1O [Malvidin-3-acglc], which “Apparent Permeability Coefficients, Tianzhu” value is on record?
A: Its value is 12.37 ± 2.45 ^a ×10^−6 cm/s.
